Data on one molecule can be found in patent US10211534B2, “Sildenafil solutions and methods of making and using same” (priority 2014, dated 2019).

Data set [1] is described as follows: spectrophotometric analysis at 228 nm before and after filtration via a 0.22 micron filter (Example 12). As to conditions: at 18 mg/ml in 70% ethanol. It counts as physicochemical. The protocol:
A UV-VIS Genesys 10S Thermo Scientific spectrophotometer was used for the assay. Samples were placed in a UV Kurette Halbmicro/UV Cuvette semi micro [Cat no: 759150] for reading.
Because the reference describes measurements at μg/ml concentrations, both the filtered and unfiltered 18 mg/ml solutions were diluted to 9 μg/ml and 12.5 μg/ml and measured again.

Data set [2] in a line: solubility of sildenafil citrate in EtOH/water mixtures with and without acetone (Example 1). It counts as physicochemical. As to conditions: Table 1; sildenafil citrate remaining in solution after heating.
For data set [3] the following is noted: cited from earlier work.
The conditions of data set [4]: tablets or oral suspension; cited from earlier work.
The mark [5] stands for this setting: EMEA CHMP Assessment Report For Vizarsin.
[6] abbreviates: Jordanian Pharmaceutical Manufacturing Co.

SMILES strings stand for the structures. Counter-ions that a name gives are not always drawn. Like-named read-outs stand apart in the source and are kept apart here.

Turning to `CCCc1nn(C)c2c(=O)[nH]c(-c3cc(S(=O)(=O)N4CCN(C)CC4)ccc3OCC)nc12` [sildenafil citrate], the “solubility as prepared in Example 1” value in data set [1] is listed as “fully soluble”. For the same molecule, the “Final conc. (After heating)” value in data set [2] was not above 35.7 mg/mL. In addition, in data set [3] (setting [5]), the solubility in acetone entry is on record as “insoluble”, the solubility in chloroform entry is reported as “insoluble”, the “solubility in dimethylsulfoxide (DMSO)” value was “soluble” and the solubility in ethanol entry was “insoluble”. Further, the solubility in methanol result in data set [3] (setting [5]) is listed as “soluble”. Also, in data set [3] (setting [6]), the solubility in ethanol is approximately 1000 µg/mL and the “times less soluble in ethanol than in water” value is “about 3.5 times”. For the same molecule, the absolute bioavailability entry in data set [4] is listed as “about 41%”.
